Measurements reported in patent US8680137B2, “Agents and methods for treating ischemic and other diseases” (Nono Inc., priority 2009, dated 2014).

Legend:
[1] = tested on: SW13 adrenal carcinoma cells; test: Cancer cell proliferation, SW13; format: cell-based; conditions: SW13, FIG. 79
Method: To determine the breadth of efficacy in cancers, we examined the efficacy of a range of TRPM7 inhibitors for their ability to inhibit cell proliferation in cancer cell lines. Representative figures are included as examples.
Cells (Table 1) were grown to 70% confluency, trypsinized, counted, and seeded in 96-well flat-bottom plates at a final concentration of 2.5×10^3-5.0×10^3 cells/well in growth media containing 5% FBS (Day 0). Other well sizes and cell densities were used successfully as well. Cells were allowed to incubate in growth media for 24 hours to allow for maximum adhesion. Treatment with the test agent began on Day 1 and continued for 72 hours either with or without retreatment. At the 72 hour time point, viable cell numbers are quantified by the CellTiter-Glo® cell viability assay as described above, or using standard MTT, SRB or BrDU assays. Experiments were repeated at least twice with the same concentrations to determine growth inhibitory activity.
Data Collection—For the cell proliferation studies, data from each experiment was collected and expressed as % Cell Growth using the following calculation: % Cell Growth=(ftest/fvehicle)×100 Where ftest is the luminescent signal of the tested sample, and fvehicle is the luminescence of the vehicle in which the drug is dissolved (or appropriate measure for the other viability/proliferation measures). […]

[2] = target: T1, TRPM4 (Homo sapiens, UniProt Q8TD43); test: Agonist-induced Ca2+ changes in HEK293 cells transfected with TRPM4; format: cell-based
T1 construct: expressed in transfected cells; host or cells: HEK293
Method: (§1) To examine selectivity of a subset of these TRPM7 inhibitors, experiments were performed to determine whether TRPM7 antagonists cross-react with other ionic channels and receptors. […] From a therapeutic perspective, knowledge of cross-reactivity of candidate drugs could shed light on other ischemic mechanisms and raise awareness of potential side effects. M21 has no effect on voltage-sensitive Na+, and Ca2+ currents in cultured cortical neurons […] TRPM7-expressing HEK293 cells, but inhibits K+ currents by about 20% at membrane potentials of −10 mV. M21 had no effect on agonist-induced Ca2+ changes in HEK293 cells transfected with constructs for TRPM2, TRPM4, TRPM6, TRPV1, TRPC2 and TRPA1. M21 also has no effect on NMDA and AMPA receptor currents in cultured neurons. […] Similar experiments were performed with other TRPM7 inhibitors including M5 and M11.

[3] = tested on: AMPA receptor; test: AMPA receptor currents in cultured neurons; format: cell-based
Method: as §1

[4] = tested on: raised intraocular pressure (IOP); test: Raised intraocular pressure model of acute glaucoma in rats; format: in vivo, rat; conditions: intraocular injection, 80 mm Hg 1 hour, 7-14 days
Method: We next tested whether direct intraocular injection of M21 could reduce retinal damage evoked by raising the intraocular pressure (IOP) in rats (80 mm Hg 1 hour; Morrison J C. Elevated intraocular pressure and optic nerve injury models in the rat. J Glaucoma. 2005; 14:315-317). M21 was microinjected into the vitreous humor directly, to control for any blood-brain-barrier penetration issues. […] The compounds of this invention can be used for the treatment of retinal disorders. Preferably these compounds are delivered orally, as an injection (intravenous, intraocular), or administered topically. This model of glaucoma can be used to assess the different routes of administration for these compounds

T1 sequence (Q8TD43 whole entry, species assumed): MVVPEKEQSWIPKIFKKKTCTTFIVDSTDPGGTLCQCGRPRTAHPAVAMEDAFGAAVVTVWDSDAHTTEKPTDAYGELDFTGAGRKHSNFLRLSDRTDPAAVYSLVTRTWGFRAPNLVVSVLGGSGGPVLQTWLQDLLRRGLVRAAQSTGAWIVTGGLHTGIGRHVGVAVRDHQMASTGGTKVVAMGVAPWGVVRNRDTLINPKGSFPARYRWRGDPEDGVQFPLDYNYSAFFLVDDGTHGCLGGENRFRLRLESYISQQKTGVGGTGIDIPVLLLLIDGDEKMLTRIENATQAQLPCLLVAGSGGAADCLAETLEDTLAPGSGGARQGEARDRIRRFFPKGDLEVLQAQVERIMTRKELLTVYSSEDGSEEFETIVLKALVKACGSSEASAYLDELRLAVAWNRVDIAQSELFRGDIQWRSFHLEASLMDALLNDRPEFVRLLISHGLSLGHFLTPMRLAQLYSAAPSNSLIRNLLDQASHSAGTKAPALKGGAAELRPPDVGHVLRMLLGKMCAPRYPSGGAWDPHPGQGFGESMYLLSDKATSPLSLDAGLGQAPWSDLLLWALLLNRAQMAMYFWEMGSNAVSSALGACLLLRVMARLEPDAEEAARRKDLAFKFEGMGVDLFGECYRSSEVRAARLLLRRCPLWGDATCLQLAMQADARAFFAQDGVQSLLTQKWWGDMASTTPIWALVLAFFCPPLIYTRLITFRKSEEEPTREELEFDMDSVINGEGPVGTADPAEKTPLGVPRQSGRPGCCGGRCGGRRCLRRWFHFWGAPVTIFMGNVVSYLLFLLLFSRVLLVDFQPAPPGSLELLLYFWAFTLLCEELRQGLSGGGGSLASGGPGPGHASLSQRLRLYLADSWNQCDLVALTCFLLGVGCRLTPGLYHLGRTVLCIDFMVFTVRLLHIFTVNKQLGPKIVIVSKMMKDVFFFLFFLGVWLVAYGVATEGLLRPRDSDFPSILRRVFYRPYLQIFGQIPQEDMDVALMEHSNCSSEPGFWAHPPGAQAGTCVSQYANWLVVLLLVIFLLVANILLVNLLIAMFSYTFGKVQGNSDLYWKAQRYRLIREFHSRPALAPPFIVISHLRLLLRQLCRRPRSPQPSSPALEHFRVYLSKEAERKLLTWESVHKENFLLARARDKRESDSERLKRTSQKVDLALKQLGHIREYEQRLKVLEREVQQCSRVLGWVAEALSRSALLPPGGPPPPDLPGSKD

| Structure (SMILES) | proliferation (BrDU incorporation) [1] | effect on agonist-induced Ca2+ changes [2] | effect on AMPA receptor currents [3] | retinal damage (histology) [4] |
| --- | --- | --- | --- | --- |
| COc1cc2c(cc1OC)C(c1sc3ccccc3c1Cl)=NCC2 [Compound M6] | significantly reduce proliferation |  |  |  |
| Cc1c(Cc2ccc(Cl)c(Cl)c2)c(=O)oc2cc(O)ccc12 [Compound M21] |  | no effect | no effect | significant reduction in retinal damage |
